Counter-ions that a name gives are not always drawn. Like-named read-outs stand apart in the source and are kept apart here.
Legend:
[1] = Autodecomposition / storage stability at room or ambient temperature; type: physicochemical
[2] = 1 M ionic strength, included for comparison; cited from earlier work
[3] = Aqueous solubility of metal ion complexes; type: physicochemical
Experimental: (§1) In addition, compounds were screened for their ability to readily decompose. Thermal degradation of the thermodynamically-unstable complexing agents was performed by heating the complexing agent in 8M HNO3 at 100° C. The thermal degradation of the compounds were followed by analysis via ^1 H, ^13 C and ^31 P NMR (nuclear magnetic resonance) spectroscopy. Furthermore, the water-solubility of metal ion complexes formed with the inventive complexing agents was determined by using macroquantities of neodymium (III), i.e., Nd(III); thorium (IV), i.e., Th(IV), and uranium (VI), i.e., U(VI).
(§2) After synthesis, the thermodynamically-unstable complexing agents of the present invention were tested for thermal stability and susceptibility to oxidation by using ^1 H, ^13 C and ^31 P NMR spectroscopy. Furthermore, the acid dissociation constants, i.e., the pKa values, of the thermodynamically-unstable complexing agents were determined by standard potentiometric titration methods. Finally, the thermodynamically-unstable diphosphonic acid complexing agents of the present invention were analyzed with respect to their ability to complex metal ions and with respect to the aqueous solubility of the resulting metal ion complexes. In addition, the solubility of the uncomplexed thermodynamically-unstable complexing agents was determined by using macro-concentrations of neodymium(III) as a substitute for the trivalent actinides; of thorium(IV), as a substitute for plutonium(IV) and neptunium(IV); of uranyl(VI), as representative for all actinide(VI) ions; of iron(III); and of zirconium. The variables included in this solubility determination were the thermally-unstable complexing agent-to-metal ion ratio, the metal ion concentration, and the pH.

[4] = Acid dissociation constants by potentiometric (pH) titration; type: physicochemical; conditions: for pK1 / pK2 / pK3 / pK4: ionic strength 2 M (NaNO3)
Experimental: as §2
In addition, the thermodynamics of protonation of the thermodynamically-unstable complexing agents of the present invention was investigated by potentiometric (pH) titration.
The acidity constants of the thermodynamically-unstable complexing agents are important in the interpretation of metal ion complexation studies, and also serve as a preliminary indicator of metal ion complex stability and conformation. TABLE III summarizes the acid dissocation constants (pKa) of three substituted diphosphonic acids of the present invention. The acid dissociation constants of oxalic and phosphoric acids are included for comparison.
Metal ion complexation with the thermodynamically-unstable complexing agent was investigated using the solvent extraction distribution ratio method. The medium used in all of the protonation and complexation studies was 2.0M NaNO3 /HNO3. The relatively high ionic strength of this medium was utilized in order to minimize interferences due to activity coefficient changes. Data interpretation in all experiments was accomplished by the application of a generic least-squares program written in BASIC. The program applies a Newton-Raphson type iterative process to the data and minimizes the sum of squares of the residuals. The generic program was adapted to several different forms to fit distribution ratio lowering (Do/D) vs. free ligand concentration measurements, and p (average proton number) data from potentiometric titrations.

[5] = type: physicochemical; conditions: for resistance to degradation: mild thermal and/or oxidation conditions
Experimental: as §1
As a result, autodecomposition is observed when the thermodynamically-unstable complexing agents of the present invention complex with metal ions such as ruthenium or tungsten.
as §2
More particularly, ^1 H, ^13 C, and ^31 P NMR spectroscopy was used to elucidate and measure the thermal degradation pathways of the thermally-unstable complexing agents of structural formula I, and to evaluate synthesis efforts. For example, ^31 P NMR spectroscopy is especially valuable in identifying the type of phosphorus compound that is synthesized or the type of phosphorous compound produced upon degradation of the thermally-unstable complexing agent. As a result, ^31 P NMR spectroscopy provides a method of showing that a particular diphosphonic acid compound actually was synthesized.

[6] = Removal of uranium from groundwater, supported liquid membrane-based process; conditions: 60° to 70° C. overnight, strip solution with uranium
Description: Aqueous solutions of the thermodynamically-unstable complexing agents of the present invention can be used in commercially available supported liquid membrane-based modules to strip metal ion contaminants from aqueous solution. Other devices using a porous membrane separating means can also be used. In general the aqueous solution containing uranium is in contact with one side of the porous membrane and the aqueous solution of the complexing agent is in contact with the other. A known organic extractant is permeated into the pores of the membrane to carry the metal ions from one side to the other. The aqueous solution of the complexing agent strips metal ions from the organic extractant in the pores, driving the extraction "reaction" toward removal of metal ions from the solution to be decontaminated.
Aqueous solutions of the thermodynamically-unstable complexing agent described in this application are useful as stripping agents in a supported liquid membrane-based process for removal of uranium contaminants from groundwater. In this process, groundwater containing 10^-4 M uranium is acidified to pH of 2 by addition of small amounts of sulfuric acid and passed through porous polypropylene hollow fibers in a supported liquid membrane module. The pores of the membrane are filled with 0.1M bis(2,4,4-trimethylpentyl)phosphinic acid in n-dodecane. […]

Dissolution of Goethite = conditions: 0.5M solution, 100 mg Goethite, 80° C., four hours
Description: One difficulty, is to ensure contact with ions "embedded" in the surface to be decontaminated. This usually requires destruction or dissolution of a surface oxide layer when the surface is metal. […] This oxide of iron is considered one of the more difficult to penetrate.

With `O=C(O)C(O)(P(=O)(O)O)P(=O)(O)O` [compound VII, carboxyhydroxymethanediphosphonic acid] the products of autodecomposition ([1]; free acid form) was “carbon dioxide, water and phosphoric acid” and the “half-life of autodecomposition (in words)” value ([1]; free acid form, room temperature) was “from about two days to about three days”.
For `O=P(O)(O)C(O)(CO)P(=O)(O)O` [tetrasodium salt of compound X], the stability ([1]; sodium (tetrasodium) salt form) was “stable indefinitely at room temperature”.
In the case of `O=C(O)C(=O)O` [Oxalic Acid, oxalic acid], the pK2 [2] is given as 3.55.
In the case of `CC(O)(P(=O)(O)O)P(=O)(O)O` [HEDPA, 1-hydroxyethane-1,1-diphosphonic acid, reference compound], the “aqueous solubility of neodymium (III) complexes” value ([3]; acid media) is reported as “only moderate aqueous solubilities”, the “aqueous solubility of thorium (IV) complexes” value ([3]; acid media) is reported as “only moderate aqueous solubilities” and the pK1 [4] is reported as 1.53. The pK2 [4] was 2.16, the pK3 [4] was 6.18 and the pK4 [4] was 9.09. For the same molecule, the resistance to degradation [5] was “ability to resist decomposition” and the resistance to degradation ([5]; listed as compound VIII) was “resisted degradation under mild thermal and/or oxidation conditions”.
With `C=C(P(=O)(O)O)P(=O)(O)O` [VDPA, vinylidenediphosphonic acid] the “solubility of metal ion complexes” value ([3]; acidic media) was “very soluble”, the pK1 [4] was 1.41 and the pK2 [4] was 2.05. The pK3 [4] was 5.98, the pK4 [4] was 8.58 and the decomposition ([5]; aqueous hydrogen peroxide, moderately elevated temperatures) was “decomposes within hours”. The decomposition ([5]; boiling nitric acid) was “decomposes within hours”, the “decomposition by metal catalyzed oxidation” value ([5]; hydrogen peroxide, metal catalyzed) was “readily decomposed” and the “decomposition after complexing with a metal ion” value ([5]; salts of vanadium(V)) was “can be decomposed by salts of vanadium(V) under very mild conditions”. The “time of destruction by heating” value [6] was “about 5 hours”, the stability ([1]; free acid form) was “stable” and the stability ([1]; sodium (tetrasodium) salt form) was “stable”. For the same molecule, the Goethite dissolved (Dissolution of Goethite) was 40%.
With `O=P(O)(O)C(O)(CO)P(=O)(O)O` [DHEDPA, 1,2-dihydroxyethane-1,1-diphosphonic acid] the “acid strength (in words)” value ([4]; TABLE III comparison) was “strongest acid”, the pK1 [4] was 0.91 and the pK2 [4] was 1.59. For the same molecule, the pK3 [4] was 5.82, the pK4 [4] was 7.97 and the “time to total decomposition” value ([5]; free acid form, boiling 8M HNO3) was “about 3 hours”. For the same molecule, the decomposition ([5]; free acid form, hydrogen peroxide at about 60° C.) was “totally decomposes”, the products of autodecomposition ([1]; free acid form) was “water, carbon dioxide and phosphoric acid” and the “conversion on previous attempts to isolate free acid” value ([1]; free acid form, as taught by prior art patent references) was “essentially immediate conversion”. For the same molecule, the half-life of autodecomposition ([1]; free acid form, room / ambient temperature) was “about 15 days”, the products of autodecomposition ([1]; free acid form, listed as compound X) was “phosphorous and phosphoric acids” and the stability ([1]; sodium (tetrasodium) salt form, listed as 1,2-dihydroxyethane-1,1-diphosphonic acid) was “stable indefinitely”.
Work on `O=C(O)CC(=O)O` [malonic acid, reference compound] yielded a Goethite dissolved (Dissolution of Goethite) of 8%.
